The text below walks through data of patent US20200071310A1, “N-ARYL PYRAZOLES AS NRF2 REGULATORS” (GLAXOSMITHKLINE INTELLECTUAL PROPERTY DEVELOPMENT LIMITED, priority 2016, published 2020).

As usually defined, the EC50 is the concentration giving half of the maximal effect.

In test [1] the test system is NQO1 specific enzyme activity in BEAS-2B cells. Kind of test: BEAS-2B NQO1 MTT Assay. Type of test: cell-based. Particulars: Homo sapiens. The text has this:
NAD(P)H:quinone oxidoreductase 1 (NQO1), also called DT diaphorase, is a homodimeric FAD-containing enzyme that catalyzes obligatory NAD(P)H-dependent two-electron reductions of quinones and protects cells against the toxic and neoplastic effects of free radicals and reactive oxygen species arising from one-electron reductions. The transcription of NQO1 is finely regulated by NRF2, and thus NQO1 activity is a good marker for NRF2 activation. On day one, frozen BEAS-2B cells (ATCC) were thawed in a water bath, counted, and re-suspended at a concentration of 250,000 cells/mL. Fifty microliters of cells were plated in 384 well black clear-bottomed plates. Plates were incubated at 37° C., 5% CO2 overnight. On day two, plates were centrifuged and 50 nL of compound or controls were added to the cells. Plates were then incubated at 37° C., 5% CO2 for 48 hours. On day four, medium was aspirated from the plate and crude cell lysates were made by adding 13 uL of 1× Cell Signaling Technologies lysis buffer with 1 Complete, Mini, EDTA-free Protease Inhibitor Tablet (Roche) for each 10 mL of lysis buffer. After lysis plates were incubated for 20 minutes at room temperature. Two microliters of lysate were removed for use in Cell Titer Glo assay (Promega) and MTT cocktail was prepared (Prochaska et. al. 1998) for measurement of NQO1 activity. Fifty microliters of MTT cocktail is added to each well, plate is centrifuged, and analyzed on an Envision plate reader (Perkin Elmer) using Absorbance 570 nm label for 30 minutes. Product formation was measured kinetically and the pEC50 of NQO1 specific activity induction was calculated by plotting the change in absorbance (Delta OD/min) versus the log of compound concentration followed by 3-parameter fitting. pEC50 is the negative log of the EC50.

The target in test [2] is T1, full length Keap1 protein / full length NRF2 protein (Homo sapiens, UniProt Q14145).
T1 construct: full length NRF2 protein and full length Keap1 protein (Keap1 exists a dimer) are used; His
T1 sequence (Q14145 whole entry): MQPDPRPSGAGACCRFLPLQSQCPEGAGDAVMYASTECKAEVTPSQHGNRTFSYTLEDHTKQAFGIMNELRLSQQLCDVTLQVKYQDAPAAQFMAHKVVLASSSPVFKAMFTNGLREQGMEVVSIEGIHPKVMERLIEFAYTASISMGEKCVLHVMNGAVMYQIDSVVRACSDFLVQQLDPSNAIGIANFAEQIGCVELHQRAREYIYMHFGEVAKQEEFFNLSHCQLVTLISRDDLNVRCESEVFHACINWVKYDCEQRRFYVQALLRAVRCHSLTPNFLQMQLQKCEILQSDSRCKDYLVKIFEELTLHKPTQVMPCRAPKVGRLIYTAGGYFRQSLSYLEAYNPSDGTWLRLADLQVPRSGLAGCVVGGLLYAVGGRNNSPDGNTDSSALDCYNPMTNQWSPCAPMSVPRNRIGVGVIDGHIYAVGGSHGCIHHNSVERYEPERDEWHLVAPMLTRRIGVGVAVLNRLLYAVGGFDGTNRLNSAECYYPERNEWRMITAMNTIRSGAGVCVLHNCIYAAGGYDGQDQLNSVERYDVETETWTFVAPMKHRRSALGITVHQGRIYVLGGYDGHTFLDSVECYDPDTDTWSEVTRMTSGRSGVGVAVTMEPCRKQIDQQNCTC
Description: NRF2-Keap1 TR-FRET Low Protein Assay. Type of test: binding. The text has this: In the NRF2-Keap1 TR-FRET (time-resolved fluorescence resonance energy transfer) low protein assay, full length NRF2 protein and full length Keap1 protein (Keap1 exists a dimer) are used. The assay detects a compound's ability to displace the binding of Keap1 FlagHis with biotinylated Avi-NRF2 protein. Biotin-NRF2 binds to streptavidin-europium (a component of the detection mix) and Keap1 FlagHis is recognized by anti-Flag APC (allophycocyanin) antibody (also a component of the detection mix). If binding occurs between the two proteins, there will be an energy transfer from the Eu+3 (donor) at 615 nm to the APC (acceptor) at 665 nm. A potential NRF2 inhibitor will cause a reduction in the TR-FRET signal by interfering with the binding of Keap1 to NRF2.
Ten nanoliters of 100× compound dose response curves (serial 3-fold dilutions) in DMSO were stamped using an Echo liquid handling system (Labcyte) into 384-well, low volume, black assay plates (Greiner, #784076), with DMSO in columns 6 and 18. An additional 90 nl DMSO was added to each well, to bring the total volume to 100 nl per well. The top concentration of compound was located in columns 1 and 13, with the serial dilutions going across the row. All reagents were diluted in assay buffer (50 mM Tris, pH 8.0, 5 mM MgCl2, 100 mM NaCl, 0.005% BSA, 1 mM DTT, and 2 mM CHAPS. The BSA, DTT, and CHAPS were added to the assay buffer on the day of assay. Using a Multidrop Combi (Thermo Electron Corporation) equipped with a metal tip dispenser, 5 ul of 1.25 nM Keap1 FlagHis protein was added to all wells of the compound plate, with the exception of the wells in column 18. Wells in column 18 received 5 ul of assay buffer instead. Plates were centrifuged at 500 rpm for 1 minute, covered with a plate lid, and incubated at 37° C. for 2.25 hours. Plates were then removed from the incubator and allowed to cool to RT for 15 minutes. Five microliters of 2.5 nM biotin-NRF2 protein was then added to all wells of the plates and the plates were spun at 500 rpm for 1 minute, followed by incubating at 4° C. for 1.25 hours. The plates were then allowed to warm to RT for 15 minutes, followed by the addition of 10 ul of detection mix (1 nM Streptavidin Eu+W1024 and 5 ug/ml mouse anti-DYKDDDDK IgG conjugated to SureLight APC antibody; both from Columbia Biosciences) to all wells. Plates were spun at 500 rpm for 1 minute, incubated for 1 hour at RT, and read on an Envision plate reader using a 320 nm excitation filter and 615 nm and 665 nm emission filters. Compound response (% inhibition) and potency (pIC50) were calculated based on the ratio of the two emissions (665 nm/615 nm) and then the transformed data was normalized against controls in the assay (control 1=1% DMSO in the presence of NRF2 and Keap1 protein and control 2=1% DMSO in the presence of only the NRF2 protein). Data analysis was handled using the software package Abase XE (Surrey, United Kingdom). The % inhibition values were calculated from the ratio (transformed) data by the equation:
100−(100*(compound response−average control 2)/(average control 1−average control2)).
For calculation of pIC50s, Abase XE used a four parameter equation.
IC50s<10 nM (+++++), IC50s 10-100 nM (++++), IC50s 100 nM-1 uM (+++), IC50s 1-10 uM (++). and IC50s 10 uM-100 uM (+), IC50s>100 uM (−), or were not determined (ND).
A general note: Time-resolved FRET reads energy transfer from a long-lived donor to a nearby acceptor.

Setting [3] is: NQO1 specific activity induction, BEAS-2B cells, 48 hours, read-out: EC50.

Read-outs that look alike come from different tables or passages of the source.

In the case of `Cn1cc([C@@H]2C[C@H]2c2c(C(=O)O)cnn2-c2cccc(CN3CC(C)(C)Oc4ccc(F)cc4S3(=O)=O)c2)nn1` (racemic) [Example 5], the values for the EC50 in test [1] (setting [3]) and in test [2] were 1 to 10 µM and 0.01 to 0.1 µM, respectively.

As for `Cn1cc([C@@H]2C[C@H]2c2c(C(=O)O)cnn2-c2cccc(CN3Cc4ccccc4CC(C)(C)C3)c2)nn1` (racemic) [Example 7], the EC50 in test [1] (setting [3]) and in test [2] was 0.1 to 1 µM in each case.

For `Cn1cc([C@@H]2C[C@H]2c2c(C(=O)O)cnn2-c2cccc(CN3Cc4ccccc4OC(C)(C)C3)c2)nn1` (racemic) [Example 8], the EC50 fell in the range of 1 to 10 µM in test [1] (setting [3]) and 0.1 to 1 µM in test [2].

Consider `Cn1cc([C@@H]2C[C@H]2c2c(C(=O)O)cnn2-c2cccc(CN3Cc4ncccc4OC(C)(C)C3)c2)nn1` (racemic) [Example 9], for which the EC50 in test [1] (setting [3]) and in test [2] was 0.1 to 1 µM throughout.

Consider `Cn1cc([C@@H]2C[C@H]2c2c(C(=O)O)cnn2-c2cccc(CN3Cc4cc(Br)ccc4OC(C)(C)C3)c2)nn1` (racemic) [Example 13], for which the results for the EC50 in test [1] (setting [3]) and in test [2] were 0.1 to 1 µM and 0.01 to 0.1 µM, respectively.

For the compound `CC[C@@H]1CN(Cc2cccc(-n3ncc(C(=O)O)c3[C@@H]3C[C@H]3c3cn(C)nn3)c2)Cc2ccccc2O1` (racemic) [Example 14], the EC50 in test [1] (BEAS-2B, 48 h) fell in the range of 1 to 10 µM; in test [2] it was 1 to 10 µM.

For the compound `C[C@H]1Cc2ccc(C(F)(F)F)cc2S(=O)(=O)N(Cc2cccc(-n3ncc(C(=O)O)c3[C@@H]3C[C@H]3c3cn(C)nn3)c2)C1` (racemic) [Example 16, 1-(3-((4-methyl-1,1-dioxido-8-(trifluoromethyl)-4,5-dihydro-benzo[f][1,2]thiazepin-2(3H)-yl)methyl)phenyl)-5-((trans)-2-(1-methyl-1H-1,2,3-triazol-4-yl)cyclopropyl)-1H-pyrazole-4-carboxylic acid], the EC50 in test [1] (setting [3]) lay within 0.1 to 1 µM; in test [2], 0.01 to 0.1 µM.

Turning to `C[C@H]1Cc2ccc(Br)cc2S(=O)(=O)N(Cc2cccc(-n3ncc(C(=O)O)c3[C@@H]3C[C@H]3c3cn(C)nn3)c2)C1` (racemic) [Example 17, 1-(3-((8-bromo-4-methyl-1,1-dioxido-4,5-dihydrobenzo[f][1,2]thiazepin-2(3H)-yl)methyl)phenyl)-5-((trans)-2-(1-methyl-1H-1,2,3-triazol-4-yl)cyclopropyl)-1H-pyrazole-4-carboxylic acid], the EC50 in test [1] (setting [3]) is 0.1 to 1 µM; in test [2], 0.01 to 0.1 µM.

In the case of `C[C@@H]1Cc2cc(C(F)(F)F)ccc2S(=O)(=O)N(Cc2cccc(-n3ncc(C(=O)O)c3[C@@H]3C[C@H]3c3cn(C)nn3)c2)C1` (racemic) [Example 18, 1-(3-((4-methyl-1,1-dioxido-7-(trifluoromethyl)-4,5-dihydro-benzo[f][1,2]thiazepin-2(3H)-yl)methyl)phenyl)-5-((trans)-2-(1-methyl-1H-1,2,3-triazol-4-yl)cyclopropyl)-1H-pyrazole-4-carboxylic acid], the EC50 in test [1] (setting [3]) and in test [2] was 0.01 to 0.1 µM each time.

Turning to `C[C@H]1Cc2cc(C(F)(F)F)ccc2S(=O)(=O)N(Cc2cccc(-n3ncc(C(=O)O)c3[C@@H]3C[C@H]3c3cn(C)nn3)c2)C1` (racemic) [Example 19, 1-(3-((4-methyl-1,1-dioxido-7-(trifluoromethyl)-4,5-dihydro-benzo[f][1,2]thiazepin-2(3H)-yl)methyl)phenyl)-5-((trans)-2-(1-methyl-1H-1,2,3-triazol-4-yl)cyclopropyl)-1H-pyrazole-4-carboxylic acid], the EC50 in test [1] (setting [3]) and in test [2] was 1 to 10 µM each time.

As to `Cn1cc([C@@H]2C[C@H]2c2c(C(=O)O)cnn2-c2cccc(Cn3ccnc3CC3CCCCCC3)c2)nn1` (racemic) [Example 23], the EC50 lay within 0.1 to 1 µM in test [1] (setting [3]) and 0.01 to 0.1 µM in test [2].

Take `Cn1cc([C@@H]2C[C@H]2c2c(C(=O)O)cnn2-c2cccc(Cn3ccnc3CN3CCCCC3)c2)nn1` (racemic) [Example 24]: the EC50 in test [1] (setting [3]) lay in the range of 1 to 10 µM; in test [2], 0.1 to 1 µM.

Turning to `CCCCCCN(Cc1cccc(-n2ncc(C(=O)O)c2[C@@H]2C[C@H]2c2cn(C)nn2)c1)S(=O)(=O)c1cccc(-c2ccccc2)c1` (racemic) [Example 34, 1-(3-((N-hexyl-[1,1′-biphenyl]-3-ylsulfonamido)methyl)phenyl)-5-((trans)-2-(1-methyl-1H-1,2,3-triazol-4-yl)cyclopropyl)-1H-pyrazole-4-carboxylic acid], the EC50 in test [1] (setting [3]) and in test [2] was 0.01 to 0.1 µM each time.

Take `CN(Cc1cccc(-n2ncc(C(=O)O)c2[C@@H]2C[C@H]2c2cn(C)nn2)c1)S(=O)(=O)c1cccc(Oc2ccccc2)c1` (racemic) [Example 35, 5-((trans)-2-(1-methyl-1H-1,2,3-triazol-4-yl)cyclo-propyl)-1-(3-((N-methyl-3-phenoxy-phenyl-sulfonamido)-methyl)phenyl)-1H-pyrazole-4-carboxylic acid]: the values for the EC50 in test [1] (setting [3]) and in test [2] were 1 to 10 µM and 0.1 to 1 µM, respectively.

As for `CCCCCCN(Cc1cccc(-n2ncc(C(=O)O)c2[C@@H]2C[C@H]2c2cn(C)nn2)c1)S(=O)(=O)c1ccccc1C` (racemic) [Example 37, 1-(3-((N-hexyl-2-methylphenylsulfonamido)methyl)phenyl)-5-((trans)-2-(1-methyl-1H-1,2,3-triazol-4-yl)cyclo-propyl)-1H-pyrazole-4-carboxylic acid], the EC50 in test [1] (setting [3]) fell in the range of 0.01 to 0.1 µM; in test [2], 0.1 to 1 µM.

For `COc1ccc(Cl)cc1S(=O)(=O)N(C)Cc1cccc(-n2ncc(C(=O)O)c2[C@@H]2C[C@H]2c2cn(C)nn2)c1` (racemic) [Example 40, 1-(3-((5-chloro-2-methoxy-N-methylphenyl-sulfonamido)-methyl)phenyl)-5-((trans)-2-(1-methyl-1H-1,2,3-triazol-4-yl)cyclo-propyl)-1H-pyrazole-4-carboxylic acid], the EC50 in test [1] (setting [3]) and in test [2] was 1 to 10 µM throughout.

`CN(Cc1cccc(-n2ncc(C(=O)O)c2[C@@H]2C[C@H]2c2cn(C)nn2)c1)S(=O)(=O)c1c(Cl)cccc1C(F)(F)F` (racemic) [Example 41, 1-(3-((2-chloro-N-methyl-6-(trifluoro-methyl)phenyl-sulfonamido)-methyl)phenyl)-5-((trans)-2-(1-methyl-1H-1,2,3-triazol-4-yl)cyclo-propyl)-1H-pyrazole-4-carboxylic acid]: the EC50 in test [1] (setting [3]) and in test [2] was 1 to 10 µM each time.
